How the values were obtained:
[1] = biological target: T1, mouse PPARγ ligand binding domain (Mus musculus, UniProt P37238); experiment: PPARγ ligand activity: GAL4-mPPARγ LBD chimera luciferase reporter assay in CV-1 cells; assay type: cell-based; details: for PPARγ ligand activities (dependence on concentration): 2-10 μg/ml; for PPARγ ligand activity: relative to untreated control (DMSO)=1.00, mean ± SD, n=4
T1 construct: expressed in transfected cells; host or cells: CV-1 cells (African green monkey kidney)
T1 sequence (P37238 174-475 isoform P37238-2): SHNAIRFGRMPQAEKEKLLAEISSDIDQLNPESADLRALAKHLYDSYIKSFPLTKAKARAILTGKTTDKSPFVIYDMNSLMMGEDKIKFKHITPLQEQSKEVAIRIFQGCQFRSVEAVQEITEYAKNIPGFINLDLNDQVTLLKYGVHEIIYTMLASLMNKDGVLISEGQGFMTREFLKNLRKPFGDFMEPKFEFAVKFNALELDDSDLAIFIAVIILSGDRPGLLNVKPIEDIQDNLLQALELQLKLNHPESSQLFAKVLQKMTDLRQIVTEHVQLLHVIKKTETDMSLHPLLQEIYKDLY
Protocol: CV-1 cells (cultured cells derived from male African green monkey kidney) were inoculated into a 96-well culture plate at 6×10^3 cells/well, and incubated at 37° C. for 24 hours under 5% CO2 conditions. As a medium, DMEM (Dulbecco's Modified Eagle Medium, product of GIBCO) containing 10% FBS (fetal bovine serum), 10 ml/L penicillin-streptomycin (5000 IU/ml and 5000 μg/ml, respectively, product of GIBCO), 37 mg/L ascorbic acid (product of Wako Pure Chemical Industries, Ltd.) was used. Cells were washed with OPTI-MEM (product of GIBCO), a serum-free medium, and transfected with pM-mPPARγ and 4×USAg-luc using LIPOFECTAMINE PLUS™ (product of GIBCO), a reagent for transfection of genes using a cationic lipid. […] The 4×UASg-luc is a reporter plasmid incorporated luciferase gene with 4-time-repeated responsive element (UASg) of GAL4 ligated thereto at the upstream end thereof. At approximately 24 hours after the transfection, the medium was replaced by a medium containing each sample (n=4) and cells were incubated for an additional 2 hours. Each sample used was dissolved in dimethyl sulfoxide (DMSO) and DMSO was used as an untreated control sample. […] Cells were washed with Ca, Mg-containing phosphate buffered saline (PBS+) and added with LUCLITE™ (product of Packard), a reagent for determination of luminescence using luciferase. Then, the luminescent intensity by expressed luciferase was determined in a TOPCOUNT™ Microplate Scintillation/Luminescence Counter (product of Packard).
The luminescent intensity was determined in the control group in the same way as in the test groups, but using pM (a plasmid lacking PPARγ ligand binding domain gene) instead of pM-mPPARγ. The ratio (test group/control group) of the average luminescent intensity between the test and control groups (n=4) was determined for each sample, and the relative activity of test sample. against the untreated control sample was determined as the PPARγ ligand activity of the sample.

[2] = system: streptozotocin-induced diabetic rats; details: diet containing 0.5% curcumin; cited from earlier work
rats = rats which received curcumin; cited from earlier work
C57BL/6J mice = experiment: Effect in model mice of diet-induced obesity (adipose tissue weights); assay type: in vivo, mouse
Protocol: C57BL/6J mice (females, 8 weeks old) were freely accessible to a high fat/high sugar diet (Oriental Yeast Co., Ltd., Table 6) for 8 weeks to obtain dietary obese animals. By using a normal diet (Oriental Yeast Co. Ltd., Table 3) as a base feed, two types of feeds, i.e., a diet without any additives and with 0.5% curcumin, were prepared. Next, said mice were divided into 2 groups (7 animals per group), and each group was freely accessible to a diet without any additives (control group) or with 0.5% curcumin (curcumin group) for 4 weeks. After an overnight fasting, mice were subjected to abdominal section under ether anesthesia to collect blood from the abdominal aorta, and then sacrificed. Then, adipose tissues were collected from the tissues around uterus, kidney and mesentery, and their weights were determined. The sum of the weights of periuterine, perirenal and mesenteric adipose tissues was determined as the total amount of intra-abdominal adipose tissue.

KK-Ay mice = experiment: Effect in KK-Ay model mice of type-II diabetes mellitus (body weight, blood glucose); assay type: in vivo, mouse; details: for Blood Glucose Level / Mouse Body weight: diet with 0.04% pioglitazone or 0.5% curcumin, mean ± SD
Protocol: KK-Ay mice, a model of genetically obese and type-II diabetic animals, were used to evaluate the effect of curcumin. Pioglitazone, a drug for treating diabetes mellitus, was used as a positive control.
KK-Ay mice (females, 6 weeks old) were divided into 3 groups (5 animals per group). By using a normal diet (product of Oriental Yeast Co. Ltd., Table 3) as a base feed, three types of feeds, i.e., a diet with out any additives, with pioglitazone and with curcumin, were prepared. Mice were placed in an environment in which they were freely accessible to a diet without any additives (control group), with pioglitazone (pioglitazone-added group) or with curcumin (curcumin-added group) for 4 weeks. Pioglitazone used was obtained by grinding Actos tablet 30 (30 mg pioglitazone per tablet, Takeda Chemical Industries Ltd.) in an agate mortar. The ground Actos tablet was then added to the normal diet at a dose of 0.04% pioglitazone. Curcumin was added to the normal diet at a dose of 0.5% curcumin.
During feeding, a small amount of blood was collected from the caudal vein of mice every week to determine blood glucose level using a simple bloodglucose level analyzer GLUTESTACE (Sanwa Kagaku Kenkyusho Co., Ltd.).

[3] = diet-induced obese C57BL/6J mice, 0.5% curcumin diet for 4 weeks, mean ± SD

COc1cc(/C=C/C(=O)/C=C(O)/C=C/c2ccc(O)c(OC)c2)ccc1O [Compound 1, Curcumin]
PPARγ ligand activities (dependence on concentration) [1]: concentration-dependent
PPARγ ligand activity ([1]; added concentration 2 μg/ml): 2.36 ± 0.94
PPARγ ligand activity ([1]; added concentration 5 μg/ml): 3.67 ± 1.06
PPARγ ligand activity ([1]; added concentration 10 μg/ml): 4.16 ± 1.10
Cholesterol, triglyceride and phospholipid levels in blood [2]: reduced
Renal lesions associated with diabetes mellitus [2]: amelioration
Activity of acyl-CoA oxidase (β-oxidation promotive enzyme) (rats): enhanced
Triglyceride accumulation in the liver (rats): inhibition
Body weight compared with control group (C57BL/6J mice): no significant difference
Weights of periuterine, perirenal, mesenteric and intra-abdominal adipose tissues compared with control group (C57BL/6J mice): significantly reduced
Adipose tissue per body weight: Mesenteric adipose tissue (c) (C57BL/6J mice; [3]): 0.39 ± 0.11 % by weight
Adipose tissue per body weight: Perirenal adipose tissue (b) (C57BL/6J mice; [3]): 0.46 ± 0.15 % by weight
Adipose tissue per body weight: Periuterine adipose tissue (a) (C57BL/6J mice; [3]): 0.8 ± 0.21 % by weight
Body weight after feeding (C57BL/6J mice; [3]): 22.9 ± 0.9 g
Adipose tissue per body weight: Intra-abdominal adipose tissue (a + b + c) (C57BL/6J mice; sum of periuterine, perirenal and mesenteric, diet-induced obese C57BL/6J mice, 0.5% curcumin diet for 4 weeks, mean ± SD): 1.65 ± 0.42 % by weight
Elevation of blood glucose level compared with control group (KK-Ay mice; 4 weeks feeding): suppressed significantly
Mouse body weight change compared with control group (KK-Ay mice; 4 weeks feeding): without any significant difference
Blood Glucose Level (KK-Ay mice; After 1 week): 191 ± 18 mg/dL
Mouse Body weight (KK-Ay mice; After 1 week): 34.7 ± 1.1 g
Blood Glucose Level (KK-Ay mice; After 2 weeks): 222 ± 46 mg/dL
Mouse Body weight (KK-Ay mice; After 2 weeks): 39.8 ± 0.7 g
Blood Glucose Level (KK-Ay mice; After 3 weeks): 348 ± 125 mg/dL
Mouse Body weight (KK-Ay mice; After 3 weeks): 42.8 ± 0.9 g
Blood Glucose Level (KK-Ay mice; After 4 weeks): 344 ± 105 mg/dL
Mouse Body weight (KK-Ay mice; After 4 weeks): 44.7 ± 1.0 g
Blood Glucose Level (KK-Ay mice; Start of feeding): 139 ± 7 mg/dL
Mouse Body weight (KK-Ay mice; Start of feeding): 25.5 ± 0.7 g

Bisdemethoxycurcumin [Compound 3]
PPARγ ligand activities (dependence on concentration) [1]: concentration-dependent
PPARγ ligand activity ([1]; added concentration 2 μg/ml): 1.88 ± 0.33
PPARγ ligand activity ([1]; added concentration 5 μg/ml): 3.55 ± 0.38
PPARγ ligand activity ([1]; added concentration 10 μg/ml): 4.08 ± 0.46

Demethoxycurcumin [Compound 2]
PPARγ ligand activities (dependence on concentration) [1]: concentration-dependent
PPARγ ligand activity ([1]; added concentration 2 μg/ml): 2.17 ± 0.39
PPARγ ligand activity ([1]; added concentration 5 μg/ml): 4.25 ± 0.77
PPARγ ligand activity ([1]; added concentration 10 μg/ml): 4.41 ± 0.35

CCc1ccc(CCOc2ccc(CC3SC(=O)NC3=O)cc2)nc1 (stereo not drawn) [Pioglitazone, reference compound]
Blood Glucose Level (KK-Ay mice; After 1 week): 163 ± 23 mg/dL
Mouse Body weight (KK-Ay mice; After 1 week): 36.7 ± 1.0 g
Blood Glucose Level (KK-Ay mice; After 2 weeks): 182 ± 9 mg/dL
Mouse Body weight (KK-Ay mice; After 2 weeks): 39.9 ± 1.2 g
Blood Glucose Level (KK-Ay mice; After 3 weeks): 166 ± 18 mg/dL
Mouse Body weight (KK-Ay mice; After 3 weeks): 42.3 ± 1.2 g
Blood Glucose Level (KK-Ay mice; After 4 weeks): 153 ± 21 mg/dL
Mouse Body weight (KK-Ay mice; After 4 weeks): 43.8 ± 1.4 g
Blood Glucose Level (KK-Ay mice; Start of feeding): 151 ± 9 mg/dL
Mouse Body weight (KK-Ay mice; Start of feeding): 26.9 ± 1.0 g
